Common to all, as to format: cell-based
Experiment [1] concerns Q7 cells (ST HDH Q7/7; immortalized mouse striatal cells). The experiment in a line: Q7 RSL3 challenge cell survival (rescue) assay. The conditions noted are these: 18 h, read-out: Q7 RSL3 Survival EC50. The source says:
(§1) In neuronal cells excess extracellular glutamate inhibits the cystine/glutamate antiporter leading to intracellular cysteine depletion, GSH depletion, reactive oxygen species (ROS) production and cell death, a phenomenon termed oxidative glutamate toxicity, oxytosis, or ferroptosis. […] Q7 cells (ST HDH Q7/7; immortalized mouse striatal cells) challenged with cystine-free media or the selective, irreversible GPX4 inhibitor, methyl (1S,3R)-2-(2-chloroacetyl)-1-(4-(methoxycarbonyl)phenyl)-2,3,4,9-tetrahydro-1H-pyrido[3,4-b]indole-3-carboxylate (hereafter referred to as RSL3), recapitulate this phenotype, as do normal human fibroblasts (NHF) challenged with RSL3. An initial screen was performed to identify compounds effective in rescuing Q7 and/or NHF cells from death resulting from cystine deprivation or RSL3 challenge. This method is further described in Yonezawa et al., J. Neurochem 67, 566-573 (1996), Li et al., J Neurosci., 23, 5816-5826 (2003), Yang and Stockwell, Chem Biol., 15: 234-45 (2008), and Yang et al., Cell 156, 317-331 (2014). See also Hinman A, Holst C R, Latham J C, et al. Vitamin E hydroquinone is an endogenous regulator of ferroptosis via redox control of 15-lipoxygenase. PLoS One. 2018; 13(8):e0201369. Published 2018 Aug. 15. doi:10.1371/journal.pone.0201369; and Kahn-Kirby A H, Amagata A, Maeder C I, et al. Targeting ferroptosis: A novel therapeutic strategy for the treatment of mitochondrial disease-related epilepsy. PLoS One. 2019; 14(3):e0214250. Published 2019 Mar. 28. doi:10.1371/journal.pone.0214250.
(§2) DMEM (Catalog no. 11995-040), DMEM without Cystine (Catalog no. 21013-024), DMEM without Glucose (Catalog A1443001), PBS (Phosphate buffered saline), Penicillin-streptomycin mix, L-Glutamine, Glucose, Phenol Red, and Pyruvate were purchased from ThermoFisher Scientific (Gibco). Fetal Bovine Serum was obtained from Mediatech, Inc., or Sigma Aldrich. Mouse striatum derived ST HDH Q7/7 (Q7) and normal human skin fibroblast (NHF, product number GM21811) cells were obtained from the Coriell Institute. Methionine and Vitamin K2 were purchased from Sigma Aldrich. RSL3 was synthesized as previously described (see e.g. US Patent Publication US2010/0081654). Cell Titer Glo 2.0 was purchased from Promega. Q7 cell culture medium (Q7 growth medium) was made by combining 50 mL Fetal Bovine Serum, 100 U/mL penicillin, and 100 microgram/mL streptomycin; DMEM was added to make the volume up to 500 mL. Assay medium for the Cystine Deprivation assay was prepared by combining 50 mL Fetal Bovine Serum, 100 U/mL penicillin, 100 microgram/mL streptomycin, 4 mM L-Glutamine, 1 mM Pyruvate and 30 mg/L Methionine; DMEM without Cystine was added to make the volume up to 500 mL. NHF cell culture medium (NHF growth medium) was made by combining 50 mL Fetal Bovine Serum, 100 U/mL penicillin, 100 microgram/mL streptomycin, 2.8 mL 20% Glucose solution (final concentration 6 mM), L-glutamine (final concentration 2 mM), phenol red (final concentration 15 mg/L); DMEM without Glucose was added to make the volume up to 500 mL. Assay medium for the RSL3 challenge assay was identical to Growth medium. While not in use during the course of the experiments, these solutions were stored at 4° C. The cells were grown in 150-cm^2 tissue culture-treated flasks. Every third or fourth day, the cells were sub-cultured by trypsinization and re-seeded at a cell density of 600,000 (Q7) or 300,000 (NHF) cells per flask.
(§3) Q7 or NHF cells were cultured routinely as described herein. For 384-well cell survival assays, cells were seeded in clear bottom, black wall 384-well tissue culture-treated polystyrene plates by re-suspending a cell suspension at a density of 50,000 cells/mL in growth medium, then dispensing 60 microliters of cell suspension per well using either an electronic multichannel pipette or a Multidrop™ Combi Reagent Dispenser (ThermoFisher Scientific), corresponding to 3,000 cells/well. […]

For experiment [2] the test system is unchanged. The experiment can be described thus: Q7 Cystine Deprivation cell survival (rescue) assay. Particulars: Q7 cells, cystine-free medium, 18 h, Cell Titer Glo, 50% relative viability vs Vitamin K2 (1 micromolar), read-out: Q7 Cystine Deprivation Survival EC50.
Source text: as §1, §2, §3
Background: In ATP-based viability assays light output follows the ATP content of the culture.

The subject of experiment [3] is normal human fibroblasts (NHF, GM21811). The experiment can be described thus: NHF GM21811 RSL3 challenge cell survival (rescue) assay. Particulars: Fibroblast, NHF cells, RSL3 2 micromolar, 48 h, Cell Titer Glo, read-out: NHF GM21811 RSL3 Survival EC50.
Source text: as §1, §2, §3

The mark [4] stands for this setting: Q7 cells, RSL3 2 micromolar, Cell Titer Glo.

Broadly, the EC50 is the concentration at which the effect is half-maximal. Take `[2H]C([2H])([2H])C1=C(C([2H])([2H])c2ccc(C(F)(F)F)cn2)C(=O)c2ccccc2C1=O` [Example 22, 2-(methyl-d3)-3-((5-(trifluoromethyl)pyridin-2-yl)methyl-d2)naphthalene-1,4-dione]: in experiment [1] (setting [4]), the EC50 was less than 50 nM.

Regarding `CC1=C(Cc2ccc(C(F)(F)F)cn2)C(=O)c2cc(C)ccc2C1=O` [Example 42, 2,6-dimethyl-3-((5-(trifluoromethyl)pyridin-2-yl)methyl)naphthalene-1,4-dione], the EC50 in experiment [2] and in experiment [3] was less than 50 nM each time.

For the compound `CC1=C(Cc2ccc(C(F)(F)F)cn2)C(=O)c2cc(C)c(C)cc2C1=O` [Example 43, 2,6,7-trimethyl-3-((5-(trifluoromethyl)pyridin-2-yl)methyl)naphthalene-1,4-dione], the EC50 was in the range of 50 to 250 nM in experiment [2] and 250 to 1000 nM in experiment [1] (setting [4]).

As for `CC1=C(Cc2ccc(C(F)(F)F)cn2)C(=O)c2ccc(F)cc2C1=O` [Example 44, 6-fluoro-3-methyl-2-((5-(trifluoromethyl)pyridin-2-yl)methyl)naphthalene-1,4-dione], the EC50 in experiment [2] and in experiment [3] was less than 50 nM each time.

In the case of `CC1=C(Cc2ccc(F)cn2)C(=O)c2cc(F)ccc2C1=O` [Example 47, 6-fluoro-3-((5-fluoropyridin-2-yl)methyl)-2-methylnaphthalene-1,4-dione], the EC50 in experiment [2] and in experiment [1] (setting [4]) was less than 50 nM throughout.

With `CC1=C(Cc2ccc(C(F)(F)F)cn2)C(=O)c2cc(F)cc(F)c2C1=O` [Example 49, 5,7-difluoro-3-methyl-2-((5-(trifluoromethyl)pyridin-2-yl)methyl)naphthalene-1,4-dione], the EC50 in experiment [2] and in experiment [1] (setting [4]) was less than 50 nM each time.

With `CC1=C(Cc2ccc(C(F)(F)F)cn2)C(=O)c2cc(Cl)cc(Cl)c2C1=O` [Example 58, 5,7-dichloro-3-methyl-2-[[5-(trifluoromethyl)-2-pyridyl]methyl]naphthalene-1,4-dione], the EC50 in experiment [1] is less than 50 nM.

Regarding `CC1=C(Cc2ccc(C(F)(F)F)cn2)C(=O)c2ccc(Cl)cc2C1=O` [Example 59, 6-chloro-3-methyl-2-[[5-(trifluoromethyl)-2-pyridyl]methyl]naphthalene-1,4-dione], the EC50 in experiment [1] (setting [4]) is less than 50 nM.

As for `CC1=C(Cc2ccc(C(F)(F)F)cn2)C(=O)c2cc(F)c(F)cc2C1=O` [Example 78, 6,7-difluoro-2-methyl-3-((5-(trifluoromethyl)pyridin-2-yl)methyl)naphthalene-1,4-dione], the EC50 in experiment [1] (setting [4]) was less than 50 nM.

Regarding `CC1=C(Cc2ccc(C(F)(F)F)cn2)C(=O)c2ccc(F)c(F)c2C1=O` [Example 80, 5,6-difluoro-3-methyl-2-((5-(trifluoromethyl)pyridin-2-yl)methyl)naphthalene-1,4-dione], the EC50 in experiment [1] (setting [4]) is less than 50 nM.

`CCCC1=C(Cc2ccc(C(F)(F)F)c(C#N)n2)C(=O)c2c(F)ccc(F)c2C1=O` [Example 85, 6-((5,8-difluoro-1,4-dioxo-3-propyl-1,4-dihydronaphthalen-2-yl)methyl)-3-(trifluoromethyl)picolinonitrile]: the 50% effective concentration (EC50) in experiment [1] (setting [4]) was less than 50 nM.

For the compound `CC1=C(Cc2ccc(C(F)(F)F)c(C#N)n2)C(=O)c2c(F)c(F)cc(F)c2C1=O` [Example 130, 6-((5,7,8-trifluoro-3-methyl-1,4-dioxo-1,4-dihydronaphthalen-2-yl)methyl)-3-(trifluoromethyl)picolinonitrile], in experiment [1] (setting [4]), the EC50 was greater than 1000 nM.

Regarding `CCC1=C(Cc2ccc(C(F)(F)F)c(OC)n2)C(=O)c2c(F)ccc(F)c2C1=O` [Example 152, 2-ethyl-5,8-difluoro-3-((6-methoxy-5-(trifluoromethyl)pyridin-2-yl)methyl)naphthalene-1,4-dione], the concentration for a half-maximal effect (EC50) in experiment [3] is less than 50 nM.

Consider `CCC1=C(Cc2ccc(C(F)(F)F)c(O)n2)C(=O)c2c(F)ccc(F)c2C1=O` [Example 153, 2-ethyl-5,8-difluoro-3-((6-hydroxy-5-(trifluoromethyl)pyridin-2-yl)methyl)naphthalene-1,4-dione], for which, in experiment [3], the EC50 is less than 50 nM.

For the origin of these results see patent publication US20230002324A1, “NAPHTHOQUINONE DERIVATIVES FOR TREATMENT OF OXIDATIVE STRESS DISORDERS” (PTC THERAPEUTICS, INC., priority 2019, published 2023).
